Patent US20170315136A9, “BIOMARKER ASSAY OF NEUROLOGICAL CONDITION” (priority 2009, published 2017)

Experiments:
[1] = test system: Female Sprague-Dawley rats; conditions: for GFAP levels / SBDP150 levels / UCH-L1 levels: biofluid, 30, 60, 90, 120 minutes following dosing
Procedure: Acute oral In vivo drug candidate screening for neurotoxicity. […] A total of four to eight animals of are used for each dose level investigated.
At 30, 60, 90, and 120 minutes following dosing, the rats are sacrificed by decapitation and blood is obtained by cardiac puncture. The levels of biofluid UCH-L1 and SBDP 150 and GFAP are analyzed by sandwich ELISA or western blot by using UCH-L1 and SBDP 150 and GFAP specific antibodies.

[2] = test system: Mouse, rat cortical or hippocampal primary neurons; experiment: In vitro drug candidate screening for neurotoxicity (ELISA of cell lysates); format: cell-based; conditions: primary neurons 21 DIV; Glutamate 0.01 to 1000 μM for 30 minutes, H2O2 0.001 to 1000 μM for 24 hours; lysates by ELISA
Procedure: In vitro drug candidate screening for neurotoxicity. Mouse, rat cortical or hippocampal primary neurons are cultured for 21 DIV, and the dose dependent responses of drugs are investigated. Cultured cells are exposed to various concentrations of: Glutamate (0.01 to 1000 μM) in 10 μM glycine both in HBSS; B) 0.01 to 100 μM Kainate in culture media; C) H2O2 (0.001 to 1000 μM) in culture media; C) Zinc (0.01 to 1000 μM) in culture media; D) U0126 (0.001 to 100 μM) in culture media; and E) and equal volume of culture media as a control. Glutamate treatment is performed for 30 minutes after which the cells are washed and the HBSS is replaced with culture media and analyzed. The remaining candidates are treated for 24 hours and analyzed. The levels of intracellular UCH-L1 and SBDP 145 are analyzed following cell lysis and screening of the lysates by ELISA using anti-UCH-L1 and SBDP 145 specific antibodies. The levels of UCH-L1 are increased following exposure particularly to Glutamate and H2O2.

| Structure (SMILES) | GFAP levels [1] | SBDP150 levels [1] | UCH-L1 levels [1] | also measured |
| --- | --- | --- | --- | --- |
| CN1CC=C(c2ccccc2)CC1 [MPTP] | increase | increase | increase |  |
| C=C(C)[C@H]1CN[C@H](C(=O)O)[C@H]1CC(=O)O [kainic acid] | increase | increase | increase |  |
| N.N.[Cl][Pt][Cl] [Cisplatin, cisplatin] | increase | increase | increase |  |
| OO [H2O2] |  |  |  | levels of intracellular UCH-L1 [2]: increased |
| N[C@@H](CCC(=O)O)C(=O)O [Glutamate] |  |  |  | levels of intracellular UCH-L1 [2]: increased |
| CN[C@@H](C)Cc1ccccc1 [methamphetamine] |  |  |  | CSF concentration of GFAP ([1]; rat, in vivo): increase; CSF concentration of SBDP 150 ([1]; rat, in vivo): increase; CSF concentration of UCH-L1 ([1]; rat, in vivo): increase |
| C[C@]12N[C@H](Cc3ccccc31)c1ccccc12 [dizocilpine] | increase | increase | increase |  |
